Results published in patent publication US20080045582A1, “ENA-78 Gene Polymorphisms and Protein Concentrations as Diagnostic and Prognostic Tools” (priority 2006, published 2008).

Key:
ENA-78 = experiment: IL-1beta-stimulated ENA-78 production from HUVECs, cytometric immunofluorescence; format: cell-based, human; conditions: for stimulation of ENA-78 production by IL-1beta, times that of basal production: FIG. 15
Procedure: Human umbilical vein endothelial cells (HUVECs) (Clonetics Cell Systems; Cambrex Bio Science Walkersville, Inc., Walkersville, USA) were cultured as previously described. Briefly, HUVECs between passes three and four were seeded at a density of 2.5×10^4 cells per cm^2 and cultured to 80% confluence with endothelial cell growth-supplemented medium (EGM-2-endothelial cell medium-2; Cambrex Bio Science Walkersville, Inc.). Once confluent, media was changed to serum free endothelial basal media (EBM-2-endothelial cell medium-2; Cambrex Bio Science Walkersville, Inc.) for 24 hours prior to treatment, in which EBM-2 media supplemented to a 2% FBS concentration was used. Treatments consisted of atorvastatin calcium (AT; LKT Laboratories Inc., St. […] All were dissolved in molecular grade water. All final DMSO concentrations were less then 0.1%. […] In experiments investigating the impact of AT on IL-1beta-stimulated ENA-78 production, HUVECs were pre-treated with AT followed by IL-1beta stimulation two hours later. […] In a separate set of experiments, cells were cultured with IL-1beta and AT in the presence or absence of mevalonate, FPP, and GGPP to determine whether AT inhibition of ENA-78 production was dependent on HMG-CoA reductase inhibition and subsequent downstream pathways. Cell culture supernates for all experiments were stored at -20° C. until analysis, which was performed within seven days. ENA-78 concentrations were measured and normalized to total protein content in cell culture supernates using cytometric immunofluorescence as previously described. Ribonucleic acid (RNA) was isolated using a commercial kit (RNeasy mini kit, Qiagen Inc., Valencia, USA). Complementary deoxyribonucleic acid (cDNA) conversion was performed by high capacity cDNA reverse transcription (Applied Biosystems, Foster City, USA) per protocol using roughly 2 μg of total RNA. RNA quality was assessed by absorbance (Nanodrop, Nanodrop Technologies, Wilmington, USA). Real-time reverse-transcription PCR (RT-PCR) was done using primer and probe sets for CXCL5 normalized to a housekeeping gene, glyceraldehyde-3-phosphate dehydrogenase (GAPDH; Taqman Gene Expression Assays, Applied Biosystems Inc.). […] PCR for both CXCL5 and GAPDH was performed at the same time using the following conditions: 95° C. for 2 minutes; 35 cycles of 95° C. for 30 seconds, 59° C. for 30 seconds, and 72° C. for 30 seconds; followed by 7 minutes of elongation at 72° C. Statistical differences in normalized protein concentrations and gene expression levels were determined by one way ANOVA and post-hoc Tukey analysis. […] An independent t-test was used to compare treatment differences at the same time points in the dose range analysis. […] Statistical analyses were performed with SPSS software, version 11.5 (SPSS Inc., Chicago, USA).

CXCL5 = CXCL5 gene expression in HUVECs, real-time RT-PCR normalized to GAPDH; format: cell-based, human; conditions: IL-1beta, 24 hours, FIG. 17
Procedure: Human umbilical vein endothelial cells (HUVECs) (Clonetics Cell Systems; Cambrex Bio Science Walkersville, Inc., Walkersville, USA) were cultured as previously described. Briefly, HUVECs between passes three and four were seeded at a density of 2.5×10^4 cells per cm^2 and cultured to 80% confluence with endothelial cell growth-supplemented medium (EGM-2-endothelial cell medium-2; Cambrex Bio Science Walkersville, Inc.). Once confluent, media was changed to serum free endothelial basal media (EBM-2-endothelial cell medium-2; Cambrex Bio Science Walkersville, Inc.) for 24 hours prior to treatment, in which EBM-2 media supplemented to a 2% FBS concentration was used. Treatments consisted of atorvastatin calcium (AT; LKT Laboratories Inc., St. […] All were dissolved in molecular grade water. All final DMSO concentrations were less then 0.1%. […] In experiments investigating the impact of AT on IL-1beta-stimulated ENA-78 production, HUVECs were pre-treated with AT followed by IL-1beta stimulation two hours later. […] In a separate set of experiments, cells were cultured with IL-1beta and AT in the presence or absence of mevalonate, FPP, and GGPP to determine whether AT inhibition of ENA-78 production was dependent on HMG-CoA reductase inhibition and subsequent downstream pathways. Cell culture supernates for all experiments were stored at -20° C. until analysis, which was performed within seven days. ENA-78 concentrations were measured and normalized to total protein content in cell culture supernates using cytometric immunofluorescence as previously described. Ribonucleic acid (RNA) was isolated using a commercial kit (RNeasy mini kit, Qiagen Inc., Valencia, USA). […] RNA quality was assessed by absorbance (Nanodrop, Nanodrop Technologies, Wilmington, USA). […] Statistical differences in normalized protein concentrations and gene expression levels were determined by one way ANOVA and post-hoc Tukey analysis. […]

Substance | stimulation of ENA-78 production by IL-1beta, times that of basal production (ENA-78; 4 hours) | stimulation of ENA-78 production by IL-1beta, times that of basal production (ENA-78; 12 hours) | stimulation of ENA-78 production by IL-1beta, times that of basal production (ENA-78; 24 hours) | stimulation of ENA-78 production by IL-1beta, times that of basal production (ENA-78; 48 hours) | IL-1beta stimulated ENA-78 production relative to constitutive concentrations (ENA-78; IL-1beta 2 ng/ml, FIG. 14) | IL-1beta stimulated ENA-78 production (ENA-78; IL-1beta 2 ng/ml, no AT (constitutive 69±11 pg/mg), FIG. 14) | IL-1beta-stimulated ENA-78 production (ENA-78; IL-1beta alone, mevalonate experiment, FIG. 16) | CXCL5 expression in HUVECs (CXCL5) | effect of co-treatment on the effect of AT on IL-1beta-stimulated ENA-78 production (ENA-78; IL-1beta and AT 10 uM, mevalonate 250 μM, FPP 5 μM, GGPP 5 μM, FIG. 16)
interleukin-1beta [IL-1beta] | 29 times | 282 times | 892 times | 1322 times | ~60 fold | 4075 ± 360 pg/mg | 3181 ± 590 pg/mg | highly induced | –
geranylgeranyl pyrophosphate [GGPP] | – | – | – | – | – | – | – | – | partially reversed
